Assay results taken from patent US6825170B2, “6-O-acyl ketolide antibacterials” (Ortho-McNeil Pharmaceutical, Inc., priority 2001, dated 2004).
Converted amounts (≈) assume the structure as drawn.

Assays:
Assay in all cases: MIC, microdilution broth method (NCCLS)
Format in all cases: cell-based
Settings in all cases: 35° C., 16-20 hours
H. influenzae ATCC49247 = test system: H. influenzae ATCC49247
Outline: (§1)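 Two-fold serial drug dilutions in cation-adjusted Mueller-Hinton broth were inoculated with actively growing cultures to about 5×10^4 CFU/well. Trays were incubated 16-20 hours at 35° C. MIC was read by comparing growth against drug-free growth-control wells.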

S. pneumoniae ATCC49619 = test system: S. pneumoniae ATCC49619
Outline: as §1

S. aureus ATCC29213 = test system: S. aureus ATCC29213
Outline: as §1

E. faecalis ATCC29212 = test system: E. faecalis ATCC29212
Outline: as §1

Row | SMILES | MIC (E: H. influenzae ATCC49247) (H. influenzae ATCC49247) | MIC (D: S. pneumoniae ATCC49619) (S. pneumoniae ATCC49619) | MIC (B: S. aureus ATCC29213) (S. aureus ATCC29213) | MIC (C: E. faecalis ATCC29212) (E. faecalis ATCC29212)
1 | CC[C@H]1OC(=O)[C@H](C)C(=O)[C@H](C)[C@@H](O[C@@H]2O[C@H](C)C[C@H](N(C)C)[C@H]2O)[C@](C)(OC(=O)NN2CCCCC2)C[C@@H](C)C(=O)[C@H](C)[C@H]2NC(=O)O[C@@]21C [Compound 816] | 16 µg/mL (≈ 22.1 µM) | 0.5 µg/mL (≈ 0.69 µM) | 16 µg/mL (≈ 22.1 µM) | 1 µg/mL (≈ 1.38 µM)
2 | CC[C@H]1OC(=O)[C@H](C)C(=O)[C@H](C)[C@@H](O[C@@H]2O[C@H](C)C[C@H](N(C)C)[C@H]2O)[C@](C)(OC(=O)N(C)N(C)Cc2ccc(-c3cnccn3)cc2)C[C@@H](C)C(=O)[C@H](C)[C@H]2NC(=O)O[C@@]21C [Compound 819] | >16 µg/mL | 0.25 µg/mL (≈ 0.293 µM) | 16 µg/mL (≈ 18.8 µM) | 1 µg/mL (≈ 1.17 µM)
3 | CC[C@H]1OC(=O)[C@H](C)C(=O)[C@H](C)[C@@H](O[C@@H]2O[C@H](C)C[C@H](N(C)C)[C@H]2O)[C@](C)(OC(=O)N(C)NCCc2ccc(-c3cnccn3)cc2)C[C@@H](C)C(=O)[C@H](C)[C@H]2NC(=O)O[C@@]21C [Compound 820] | 8 µg/mL (≈ 9.38 µM) | 0.06 µg/mL (≈ 0.0703 µM) | 1 µg/mL (≈ 1.17 µM) | 0.25 µg/mL (≈ 0.293 µM)
4 | CC[C@H]1OC(=O)[C@H](C)C(=O)[C@H](C)[C@@H](O[C@@H]2O[C@H](C)C[C@H](N(C)C)[C@H]2O)[C@](C)(OC(=O)N(C)N(C)CCc2ccc(-c3cnccn3)cc2)C[C@@H](C)C(=O)[C@H](C)[C@H]2NC(=O)O[C@@]21C [Compound 821] | 16 µg/mL (≈ 18.5 µM) | 0.12 µg/mL (≈ 0.138 µM) | 2 µg/mL (≈ 2.31 µM) | 0.5 µg/mL (≈ 0.577 µM)
5 | CC[C@H]1OC(=O)[C@H](C)C(=O)[C@H](C)[C@@H](O[C@@H]2O[C@H](C)C[C@H](N(C)C)[C@H]2O)[C@](C)(OC(=O)Nn2ccc(-c3ccc(-c4ncccn4)cc3)c2)C[C@@H](C)C(=O)[C@H](C)[C@H]2NC(=O)O[C@@]21C [Compound 824] | 16 µg/mL (≈ 18.6 µM) | 0.12 µg/mL (≈ 0.139 µM) | 2 µg/mL (≈ 2.32 µM) | 1 µg/mL (≈ 1.16 µM)
6 | CC[C@H]1OC(=O)[C@H](C)C(=O)[C@H](C)[C@@H](O[C@@H]2O[C@H](C)C[C@H](N(C)C)[C@H]2O)[C@](C)(OC(=O)NN=Cc2ccc(-c3ncccn3)cc2)C[C@@H](C)C(=O)[C@H](C)[C@H]2NC(=O)O[C@@]21C [Compound 825] | 16 µg/mL (≈ 19.4 µM) | 0.12 µg/mL (≈ 0.146 µM) | 4 µg/mL (≈ 4.86 µM) | 0.5 µg/mL (≈ 0.608 µM)
7 | CC[C@H]1OC(=O)[C@H](C)C(=O)[C@H](C)[C@@H](O[C@@H]2O[C@H](C)C[C@H](N(C)C)[C@H]2O)[C@](C)(OC(=O)NN=CCc2ccc(-c3ncccn3)cc2)C[C@@H](C)C(=O)[C@H](C)[C@H]2NC(=O)O[C@@]21C [Compound 826] | 8 µg/mL (≈ 9.56 µM) | 0.25 µg/mL (≈ 0.299 µM) | 8 µg/mL (≈ 9.56 µM) | 2 µg/mL (≈ 2.39 µM)

Continued, values first:

Row | MIC (E: H. influenzae ATCC49247) (H. influenzae ATCC49247) | MIC (D: S. pneumoniae ATCC49619) (S. pneumoniae ATCC49619) | MIC (B: S. aureus ATCC29213) (S. aureus ATCC29213) | MIC (C: E. faecalis ATCC29212) (E. faecalis ATCC29212) | SMILES
8 | 4 µg/mL (≈ 4.69 µM) | 0.06 µg/mL (≈ 0.0703 µM) | 2 µg/mL (≈ 2.34 µM) | 0.5 µg/mL (≈ 0.586 µM) | CC[C@H]1OC(=O)[C@H](C)C(=O)[C@H](C)[C@@H](O[C@@H]2O[C@H](C)C[C@H](N(C)C)[C@H]2O)[C@](C)(OC(=O)NN(C(C)=O)S(=O)(=O)c2ccc(C)cc2)C[C@@H](C)C(=O)[C@H](C)[C@H]2NC(=O)O[C@@]21C [Compound 810]
9 | 4 µg/mL (≈ 4.63 µM) | 0.06 µg/mL (≈ 0.0695 µM) | 2 µg/mL (≈ 2.32 µM) | 0.5 µg/mL (≈ 0.579 µM) | CC[C@H]1OC(=O)[C@H](C)C(=O)[C@H](C)[C@@H](O[C@@H]2O[C@H](C)C[C@H](N(C)C)[C@H]2O)[C@](C)(OC(=O)NNS(=O)(=O)c2ccc(-n3cccn3)cc2)C[C@@H](C)C(=O)[C@H](C)[C@H]2NC(=O)O[C@@]21C [Compound 811]
10 | >16 µg/mL | 2 µg/mL (≈ 2.86 µM) | >16 µg/mL | 4 µg/mL (≈ 5.72 µM) | CC[C@H]1OC(=O)[C@H](C)C(=O)[C@H](C)[C@@H](O[C@@H]2O[C@H](C)C[C@H](N(C)C)[C@H]2O)[C@](C)(OC(=O)NNC(C)=O)C[C@@H](C)C(=O)[C@H](C)[C@H]2NC(=O)O[C@@]21C [Compound 812]
11 | 16 µg/mL (≈ 21 µM) | 0.25 µg/mL (≈ 0.329 µM) | 16 µg/mL (≈ 21 µM) | 1 µg/mL (≈ 1.31 µM) | CC[C@H]1OC(=O)[C@H](C)C(=O)[C@H](C)[C@@H](O[C@@H]2O[C@H](C)C[C@H](N(C)C)[C@H]2O)[C@](C)(OC(=O)NNC(=O)c2ccccc2)C[C@@H](C)C(=O)[C@H](C)[C@H]2NC(=O)O[C@@]21C [Compound 813]
12 | 8 µg/mL (≈ 10.1 µM) | 0.12 µg/mL (≈ 0.152 µM) | 8 µg/mL (≈ 10.1 µM) | 0.5 µg/mL (≈ 0.632 µM) | CC[C@H]1OC(=O)[C@H](C)C(=O)[C@H](C)[C@@H](O[C@@H]2O[C@H](C)C[C@H](N(C)C)[C@H]2O)[C@](C)(OC(=O)NNC(=O)OCc2ccccc2)C[C@@H](C)C(=O)[C@H](C)[C@H]2NC(=O)O[C@@]21C [Compound 814]
13 | 16 µg/mL (≈ 20.3 µM) | 0.25 µg/mL (≈ 0.316 µM) | 4 µg/mL (≈ 5.06 µM) | 1 µg/mL (≈ 1.27 µM) | CC[C@H]1OC(=O)[C@H](C)C(=O)[C@H](C)[C@@H](O[C@@H]2O[C@H](C)C[C@H](N(C)C)[C@H]2O)[C@](C)(OC(=O)NNC(=O)N(C)c2ccccc2)C[C@@H](C)C(=O)[C@H](C)[C@H]2NC(=O)O[C@@]21C [Compound 815]
14 | 8 µg/mL (≈ 9.54 µM) | 0.06 µg/mL (≈ 0.0715 µM) | 2 µg/mL (≈ 2.38 µM) | 0.25 µg/mL (≈ 0.298 µM) | CC[C@H]1OC(=O)[C@H](C)C(=O)[C@H](C)[C@@H](O[C@@H]2O[C@H](C)C[C@H](N(C)C)[C@H]2O)[C@](C)(OC(=O)N(C)NCc2ccc(-c3cnccn3)cc2)C[C@@H](C)C(=O)[C@H](C)[C@H]2NC(=O)O[C@@]21C [Compound 817]
15 | 8 µg/mL (≈ 9.55 µM) | 0.06 µg/mL (≈ 0.0716 µM) | 4 µg/mL (≈ 4.77 µM) | 0.25 µg/mL (≈ 0.298 µM) | CC[C@H]1OC(=O)[C@H](C)C(=O)[C@H](C)[C@@H](O[C@@H]2O[C@H](C)C[C@H](N(C)C)[C@H]2O)[C@](C)(OC(=O)N(C)NCc2ccc(-c3ccccn3)cc2)C[C@@H](C)C(=O)[C@H](C)[C@H]2NC(=O)O[C@@]21C [Compound 818]
